Columns and labels:
Assay type in all cases: in vivo
[1] = system: Amaranthus retroflexus (AMARE); assay: Biological Example 1 glasshouse screen, pre-emergence herbicidal activity; conditions: application rate 250 g/ha, evaluated after 13 days
Experimental: (§1) Seeds of a variety of test species were sown in standard soil in pots. After cultivation for one day (pre-emergence) or after 8 days cultivation (post-emergence) under controlled conditions in a glasshouse (at 24/16°C., day/night; 14 hours light; 65% humidity), the plants were sprayed with an aqueous spray solution derived from the formulation of the “technical”(i.e. unformulated) active ingredient in acetone/water (50:50) solution containing 0.5% Tween 20 (polyoxyethylene sorbitan monolaurate, CAS Registry Number 9005-64-5). The test plants were then grown in a glasshouse under controlled conditions in a glasshouse (at 24/16°C., day/night; 14 hours light; 65% humidity) and watered twice daily. After 13 days for pre- or post-emergence, the test was evaluated visually, and an assessed percentage phytotoxicity score given for each herbicidal application on each plant/weed species (with 100%=total damage to plant; 0%=no damage to plant).
(§2) Test plants: Alopecurus myosuroides (ALOMY), Setaria faberi (SETFA), Echinochloa crus-galli (ECHCG), Solanum nigrum (SOLNI), Amaranthus retroflexus (AMARE) and Ipomoea hederacea (IPOHE). ALOMY, SETFA and ECHCG are grassy monocotyledonous weeds. SOLNI, AMARE and IPOHE are dicotyledonous (broadleaved) weeds.

[2] = system: Ipomoea hederacea (IPOHE); assay: as above; conditions: application rate 250 g/ha, evaluated after 13 days
Experimental: as §1, §2

Setaria faberi (SETFA) [3] = assay: as above; conditions: application rate 250 g/ha, evaluated after 13 days
Experimental: as §1, §2

Solanum nigrum (SOLNI) [4] = assay: as above; conditions: application rate 250 g/ha, evaluated after 13 days
Experimental: as §1, §2

[5] = system: Alopecurus myosuroides (ALOMY); assay: as above; conditions: 312 h, application rate 250 g/ha, evaluated after 13 days, read-out: ALOMY percentage phytotoxicity
Procedure, shortened: (§3)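 Pot-grown seedlings sprayed 1 day after sowing (pre-emergence) or after 8 days' growth (post-emergence) with active ingredient in acetone/water (50:50) plus 0.5% Tween 20; glasshouse at 24/16°C day/night, 14 h light, 65% humidity. Visual % phytotoxicity (0 = no damage, 100 = total damage) scored 13 days after application.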

[6] = system: Echinochloa crus-galli (ECHCG); assay: as above; conditions: 312 h, application rate 250 g/ha, evaluated after 13 days, read-out: ECHCG percentage phytotoxicity
Procedure, shortened: as §3

[7] = system: Amaranthus retroflexus (AMARE); assay: Biological Example 1 glasshouse screen, post-emergence herbicidal activity; conditions: application rate 250 g/ha, evaluated after 13 days
Experimental: as §1, §2

[8] = system: Ipomoea hederacea (IPOHE); assay: as above; conditions: application rate 250 g/ha, evaluated after 13 days
Experimental: as §1, §2

Setaria faberi (SETFA) [9] = assay: as above; conditions: application rate 250 g/ha, evaluated after 13 days
Experimental: as §1, §2

Solanum nigrum (SOLNI) [10] = assay: as above; conditions: application rate 250 g/ha, evaluated after 13 days
Experimental: as §1, §2

[11] = system: Alopecurus myosuroides (ALOMY); assay: as above; conditions: 312 h, application rate 250 g/ha, evaluated after 13 days, read-out: ALOMY percentage phytotoxicity
Procedure, shortened: as §3

[12] = system: Echinochloa crus-galli (ECHCG); assay: as above; conditions: 312 h, application rate 250 g/ha, evaluated after 13 days, read-out: ECHCG percentage phytotoxicity
Procedure, shortened: as §3

[13] = system: Alopecurus myosuroides (ALOMY); assay: Biological Example 2 post-emergence herbicidal activity (comparative data); conditions: 312 h, read-out: ALOMY percentage phytotoxicity; for pest or weed control at 15.625 g/ha: 15.625 g/ha application rate; for pest or weed control at 62.5 g/ha: 62.5 g/ha application rate
Experimental: as §1
(§4) Comparative herbicidal data are given for certain exemplified compounds with 4-(prop-1-ynyl)-2,6-dimethylphenyl or 4-(chloroethynyl)-2,6-dimethylphenyl headgroups, compared to the corresponding comparative compounds with 4-ethynyl-2,6-dimethylphenyl headgroups, as follows.
(§5) Except where specified otherwise, the glasshouse screen for herbicidal activity is substantially the same as that presented in Biological Example 1 hereinabove. The weed abbreviations are as defined in Biological Example 1.

[14] = system: Echinochloa crus-galli (ECHCG); assay: as above; conditions: 312 h, read-out: ECHCG percentage phytotoxicity; for pest or weed control at 15.625 g/ha: 15.625 g/ha application rate; for pest or weed control at 62.5 g/ha: 62.5 g/ha application rate
Experimental: as §1, §4, §5

Setaria faberi (SETFA) [15] = assay: as above
Experimental: as §1, §4, §5

Row | Structure (SMILES) | AMARE percentage phytotoxicity [1] | IPOHE percentage phytotoxicity [2] | SEFTA percentage phytotoxicity (Setaria faberi (SETFA) [3]) | SOLNI percentage phytotoxicity (Solanum nigrum (SOLNI) [4]) | pest or weed control at 250 g/ha [5] | pest or weed control at 250 g/ha [6] | AMARE percentage phytotoxicity [7] | IPOHE percentage phytotoxicity [8] | SEFTA percentage phytotoxicity (Setaria faberi (SETFA) [9]) | SOLNI percentage phytotoxicity (Solanum nigrum (SOLNI) [10]) | pest or weed control at 250 g/ha [11] | pest or weed control at 250 g/ha [12] | pest or weed control at 15.625 g/ha [13] | pest or weed control at 62.5 g/ha [13] | pest or weed control at 15.625 g/ha [14] | pest or weed control at 62.5 g/ha [14] | SETFA percentage phytotoxicity (Setaria faberi (SETFA) [15]; 15.625 g/ha application rate) | SETFA percentage phytotoxicity (Setaria faberi (SETFA) [15]; 62.5 g/ha application rate)
1 | Cc1cc(C#CCl)cc(C)c1C1C(=O)CCC1=O [Compound A-16] | 40% | 0% | 90% | 10% | 50% | 100% | 10% | 10% | 70% | 20% | 50% | 100% | 10% | 10% | 70% | 90% | 0% | 80%
2 | Cc1cc(C#CCl)cc(C)c1C1C(=O)C2C(C1=O)[C@H]1CC[C@@H]2O1 (stereo partly drawn) [Compound A-17] | 100% | 80% | 100% | 80% | 80% | 100% | 10% | 70% | 90% | 70% | 80% | 100% | 60% | 70% | 100% | 100% | 80% | 80%

Reference: US9107415B2, “2-(substituted-phenyl)-cyclopentane-1,3-dione compounds, and derivatives thereof” (Syngenta Limited, priority 2011, dated 2015)
